In US9505781B2, “Compositions comprising thienopyrimidine and thienopyridine compounds and methods of use thereof” (The Regents of the University of Michigan, priority 2013, dated 2016) one finds IC50 data, which are given here for 55 compounds.

The target in the assay is T1, menin-MLL interaction (Homo sapiens, UniProt O00255).
T1 sequence (O00255 1-610): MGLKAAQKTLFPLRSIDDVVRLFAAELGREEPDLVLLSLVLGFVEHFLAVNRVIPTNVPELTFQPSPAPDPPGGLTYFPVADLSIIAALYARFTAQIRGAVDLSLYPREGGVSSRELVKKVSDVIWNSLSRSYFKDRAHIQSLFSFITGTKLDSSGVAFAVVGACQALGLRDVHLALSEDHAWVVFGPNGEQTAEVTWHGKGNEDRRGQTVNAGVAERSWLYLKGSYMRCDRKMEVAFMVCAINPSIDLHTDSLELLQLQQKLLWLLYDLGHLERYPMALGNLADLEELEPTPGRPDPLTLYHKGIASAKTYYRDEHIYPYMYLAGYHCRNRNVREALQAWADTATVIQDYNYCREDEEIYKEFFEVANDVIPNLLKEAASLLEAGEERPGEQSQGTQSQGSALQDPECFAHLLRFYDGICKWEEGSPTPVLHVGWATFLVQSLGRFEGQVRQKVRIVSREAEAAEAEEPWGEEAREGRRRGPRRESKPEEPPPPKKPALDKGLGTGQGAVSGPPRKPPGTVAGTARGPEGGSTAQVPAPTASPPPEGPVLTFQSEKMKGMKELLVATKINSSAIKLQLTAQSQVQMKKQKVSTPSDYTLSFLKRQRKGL
The experiment in a line: biochemical.
From the text: Compounds that inhibit the interaction decrease the fluorescence anisotropy which is being used as a read-out for compound screening and for IC50 determination.
As for `Cc1c(CN2CCC(Nc3ncnc4sc(CC(F)(F)F)cc34)CC2)ccc2c1cc(C#N)n2CCN1CCN(C(=O)CCC2CC2)CC1` [Compound 344], the IC50 was below 0.1 µM.
The compound `Cc1c(CN2CCC(Nc3ncnc4sc(CC(F)(F)F)cc34)CC2)ccc2c1cc(C#N)n2Cc1cc(Cc2ccncc2)[nH]n1` [Compound 345] gave a concentration for half-maximal inhibition (IC50) below 0.1 µM.
`Cc1c(CN2CCC(Nc3ncnc4sc(CC(F)(F)F)cc34)CC2)ccc2c1cc(C#N)n2CC(O)(CO)CCC1CCCCC1` (stereo not shown) [Compound 346] displayed an IC50 below 0.1 µM.
The value for `Cc1c(CN2CCC(Nc3ncnc4sc(CC(F)(F)F)cc34)CC2)ccc2c1cc(C#N)n2Cc1cc(Cc2ccc(=O)[nH]c2)[nH]n1` [Compound 347] was below 0.1 µM.
On to `Cc1c(CN2CCC(Nc3ncnc4sc(CC(F)(F)F)cc34)CC2)ccc2c1cc(C#N)n2CC(O)(CO)CC1CCCCC1` (stereo not shown) [Compound 348], for which the IC50 is below 0.1 µM.
Consider `Cc1c(CN2CCC(Nc3ncnc4sc(CC(F)(F)F)cc34)CC2)ccc2c1cc(C#N)n2Cc1cnc[nH]1` [Compound 349], for which the half-maximal inhibitory concentration (IC50) is below 0.1 µM.
`Cc1nc[nH]c1Cn1c(C#N)cc2c(C)c(CN3CCC(Nc4ncnc5sc(CC(F)(F)F)cc45)CC3)ccc21` [Compound 350] gave a half-inhibitory concentration (IC50) below 0.1 µM.
The compound `Cc1ncc(Cn2c(C#N)cc3c(C)c(CN4CCC(Nc5ncnc6sc(CC(F)(F)F)cc56)CC4)ccc32)[nH]1` [Compound 351] came in with a half-inhibitory concentration (IC50) below 0.1 µM.
Turning to `N#Cc1cc2c(C=O)c(CN3CCC(Nc4ncnc5sc(CC(F)(F)F)cc45)CC3)ccc2n1Cc1cn[nH]c1` [Compound 352], the IC50 is below 0.1 µM.
In turn, `Cc1c(CN2CCC(Nc3ncnc4sc(CC(F)(F)F)cc34)CC2)ccc2c1cc(C#N)n2Cc1ncco1` [Compound 353] yielded an IC50 below 0.1 µM.
The result for `Cc1c(CN2CCC(Nc3ncnc4sc(CC(F)(F)F)cc34)CC2)ccc2c1cc(C#N)n2CCS(C)(=O)=O` [Compound 354] reads below 0.1 µM; that for `Cc1c(CN2CCC(Nc3ncnc4sc(CC(F)(F)F)cc34)CC2)ccc2c1cc(C#N)n2CCN1CCNC(=O)C1` [Compound 355], below 0.1 µM.
On to `Cc1c(CN2CCC(Nc3ncnc4sc(CC(F)(F)F)cc34)CC2)ccc2c1cc(C#N)n2CCN1CCN(C)C(=O)C1` [Compound 356], for which the concentration for half-maximal inhibition (IC50) is below 0.1 µM.
With `Cc1c(CN2CCC(Nc3ncnc4sc(CC(F)(F)F)cc34)CC2)ccc2c1cc(C#N)n2CCN1CCN(C(C)C)CC1` [Compound 357], the concentration for half-maximal inhibition (IC50) was below 0.1 µM.
In the case of `Cc1c(CN2CCC(Nc3ncnc4sc(CC(F)(F)F)cc34)CC2)ccc2c1cc(C#N)n2CC(O)CN1CCNCC1` (stereo not shown) [Compound 358], the IC50 was below 0.1 µM.
The result for `Cc1c(CN2CCC(Nc3ncnc4sc(CC(F)(F)F)cc34)CC2)ccc2c1cc(C#N)n2CCN1CCSCC1` [Compound 360] reads below 0.1 µM.
With `Cc1c(CN2CCC(Nc3ncnc4sc(CC(F)(F)F)cc34)CC2)ccc2c1cc(C#N)n2Cc1cnco1` [Compound 361], the concentration for half-maximal inhibition (IC50) was below 0.1 µM.
The result for `Cc1c(CN2CCC(Nc3ncnc4sc(CC(F)(F)F)cc34)CC2)ccc2c1cc(C#N)n2CCN1CCOC(CO)C1` (stereo not shown) [Compound 362] reads below 0.1 µM; that for `Cc1c(CN2CCC(Nc3ncnc4sc(CC(F)(F)F)cc34)CC2)ccc2c1cc(C#N)n2CCN1CCNC(C(N)=O)C1` (stereo not shown) [Compound 363], below 0.1 µM.
Compound `Cc1c(CN2CCC(Nc3ncnc4sc(CC(F)(F)F)cc34)CC2)ccc2c1cc(C#N)n2CCN1CCN(CC(N)=O)CC1` [Compound 364] came in with a half-inhibitory concentration (IC50) below 0.1 µM.
Regarding `Cc1cc(Cn2c(C#N)cc3c(C)c(CN4CCC(Nc5ncnc6sc(CC(F)(F)F)cc56)CC4)ccc32)[nH]n1` [Compound 365], the concentration for half-maximal inhibition (IC50) is below 0.1 µM.
`Cc1c(CN2CCC(Nc3ncnc4sc(CC(F)(F)F)cc34)CC2)ccc2c1cc(C#N)n2CCN1CCN[C@@H](C)C1` [Compound 367] displayed an IC50 below 0.1 µM.
With `Cc1c(CN2CCC(Nc3ncnc4sc(CC(F)(F)F)cc34)CC2)ccc2c1cc(C#N)n2CCN1CCS(=O)(=O)CC1` [Compound 368], the half-inhibitory concentration (IC50) is below 0.1 µM.
Turning to `Cc1c(CN2CCC(Nc3ncnc4sc(CC(F)(F)F)cc34)CC2)ccc2c1cc(C#N)n2CCN1CCNC(C)C1` (stereo not shown) [Compound 369], the half-maximal inhibitory concentration (IC50) was below 0.1 µM.
On to `CC(=O)NCCC(O)(CO)Cn1c(C#N)cc2c(C)c(CN3CCC(Nc4ncnc5sc(CC(F)(F)F)cc45)CC3)ccc21` (stereo not shown) [Compound 371], for which the half-maximal inhibitory concentration (IC50) was below 0.1 µM.
The value for `Cc1c(CN2CCC(Nc3ncnc4sc(CC(F)(F)F)cc34)CC2)ccc2c1cc(C#N)n2CC(O)(CO)CCn1ccnn1` (stereo not shown) [Compound 373] was below 0.1 µM; that for `Cc1c[nH]c(CCC(O)(CO)Cn2c(C#N)cc3c(C)c(CN4CCC(Nc5ncnc6sc(CC(F)(F)F)cc56)CC4)ccc32)n1` (stereo not shown) [Compound 374] was below 0.1 µM; that for `Cc1c(CN2CCC(Nc3ncnc4sc(CC(F)(F)F)cc34)CC2)ccc2c1cc(C#N)n2CCN1CCN(S(=O)(=O)N(C)C)CC1` [Compound 375] was below 0.1 µM.
In the case of `Cc1c(CN2CCC(Nc3ncnc4sc(CC(F)(F)F)cc34)CC2)ccc2c1cc(C#N)n2CCN1CCN(C(=O)N(C)C)CC1` [Compound 376], the 50% inhibitory concentration (IC50) is below 0.1 µM.
The value for `Cc1c(CN2CCC(Nc3ncnc4sc(CC(F)(F)F)cc34)CC2)ccc2c1cc(C#N)n2CCN1CCNC(C(F)(F)F)C1` (stereo not shown) [Compound 378] was below 0.1 µM; that for `Cc1c(CN2CCC(Nc3ncnc4sc(CC(F)(F)F)cc34)CC2)ccc2c1cc(C#N)n2Cc1cnn(C)c1` [Compound 379] was below 0.1 µM.
The value for `Cc1c(CN2CCC(Nc3ncnc4sc(CC(F)(F)F)cc34)CC2)ncc2[nH]c(C#N)cc12` [Compound 380] was below 0.1 µM; that for `N#Cc1cc2c(Cl)c(CN3CCC(Nc4ncnc5sc(CC(F)(F)F)cc45)CC3)ccc2n1Cc1cn[nH]c1` [Compound 381] was below 0.1 µM; that for `N#Cc1cc2cc(CN3CCC(Nc4ncnc5sc(CC(F)(F)F)cc45)CC3)c(O)cc2n1Cc1cn[nH]c1` [Compound 382] was below 0.1 µM.
The result for `COc1cc2[nH]c(C#N)cc2c(C)c1CN1CCC(Nc2ncnc3sc(CC(F)(F)F)cc23)CC1` [Compound 383] reads below 0.1 µM.
`Cc1c(CN2CCC(Nc3ncnc4sc(CC(F)(F)F)cc34)CC2)c(O)cc2[nH]c(C#N)cc12` [Compound 384] registered a half-inhibitory concentration (IC50) below 0.1 µM.
`COc1cc2c(cc(C#N)n2CC(N)=O)c(C)c1CN1CCC(Nc2ncnc3sc(CC(F)(F)F)cc23)CC1` [Compound 385] showed an IC50 below 0.1 µM.
The compound `COc1cc2c(cc(C#N)n2CCO)c(C)c1CN1CCC(Nc2ncnc3sc(CC(F)(F)F)cc23)CC1` [Compound 386] returned an IC50 below 0.1 µM.
The value for `Cc1c(CN2CCC(Nc3ncnc4sc(CC(F)(F)F)cc34)CC2)c(O)cc2c1cc(C#N)n2CCO` [Compound 387] was below 0.1 µM.
In turn, `Cc1c(CN2CCC(Nc3ncnc4sc(CC(F)(F)F)cc34)CC2)c(O)cc2c1cc(C#N)n2Cc1cn[nH]c1` [Compound 388] yielded a 50% inhibitory concentration (IC50) below 0.1 µM.
On to `COc1cc2c(cc(C#N)n2Cc2cn[nH]c2)c(C)c1CN1CCC(Nc2ncnc3sc(CC(F)(F)F)cc23)CC1` [Compound 389], for which the half-inhibitory concentration (IC50) was below 0.1 µM.
The value for `COc1cc2c(cc1CN1CCC(Nc3ncnc4sc(CC(F)(F)F)cc34)CC1)cc(C#N)n2Cc1cn[nH]c1` [Compound 390] was below 0.1 µM.
The value for `Cc1c(CN2CCC(Nc3ncnc4sc(CC(F)(F)F)cc34)CC2)c(O)cc2c1cc(C#N)n2Cc1c[nH]nn1` [Compound 391] was below 0.1 µM; that for `COc1cc2c(cc(C#N)n2Cc2c[nH]nn2)c(C)c1CN1CCC(Nc2ncnc3sc(CC(F)(F)F)cc23)CC1` [Compound 392] was below 0.1 µM; that for `N#Cc1cc2cc(CN3CCC(Nc4ncnc5sc(CC(F)(F)F)cc45)CC3)ccc2n1CCN1CCNCC1` [Compound 393] was below 0.1 µM.
Turning to `CCC(=O)N1CCN(CCn2c(C#N)cc3cc(CN4CCC(Nc5ncnc6sc(CC(F)(F)F)cc56)CC4)ccc32)CC1` [Compound 394], the concentration for half-maximal inhibition (IC50) is below 0.1 µM.
For `CS(=O)(=O)OCCn1c(C#N)cc2cc(CN3CCC(Nc4ncnc5sc(CC(F)(F)F)cc45)CC3)ccc21` [Compound 395], the IC50 is below 0.1 µM.
The result for `CCC(=O)N1CCN(CCCn2c(C#N)cc3cc(CN4CCC(Nc5ncnc6sc(CC(F)(F)F)cc56)CC4)ccc32)CC1` [Compound 396] reads below 0.1 µM; that for `N#Cc1cc2c(OC(F)F)c(CN3CCC(Nc4ncnc5sc(CC(F)(F)F)cc45)CC3)ccc2[nH]1` [Compound 408], 0.1 to 0.5 µM; that for `CCOc1c(CN2CCC(Nc3ncnc4sc(CC(F)(F)F)cc34)CC2)ccc2c1cc(C#N)n2CC(N)=O` [Compound 409], 0.1 to 0.5 µM.
Compound `Cc1cc(CN2CCC(Nc3ncnc4sc(CC(F)(F)F)cc34)CC2)cc2cc(C#N)[nH]c12` [Compound 410] had an IC50 of 0.1 to 0.5 µM.
Turning to `COCCOCCn1nc(Cn2c(C#N)cc3cc(CN4CCC(Nc5ncnc6sc(CC(F)(F)F)cc56)CC4)ccc32)cc1C` [Compound 411], the IC50 was in the range of 0.1 to 0.5 µM.
For the compound `N#Cc1cc2cc(CN3CCC(Nc4ncnc5sc(CC(F)(F)F)cc45)CC3)ccc2n1Cc1cc(OCCC2CC2)n[nH]1` [Compound 412], the half-inhibitory concentration (IC50) lay within 0.1 to 0.5 µM.
For the compound `N#Cc1cc2cc(CN3CCC(Nc4ncnc5sc(CC(F)(F)F)cc45)CC3)ccc2n1CC(O)(CO)COCCC1CCCCC1` (stereo not shown) [Compound 413], the 50% inhibitory concentration (IC50) was 0.1 to 0.5 µM.
In turn, `N#Cc1cc2cc(CN3CCC(Nc4ncnc5sc(CC(F)(F)F)cc45)CC3)ccc2n1Cc1cc(OCCCC2CC2)n[nH]1` [Compound 414] returned an IC50 of 0.1 to 0.5 µM.

For orientation: IC50 means the concentration needed to halve the response being measured. Low values mean greater potency, high ones weaker potency.
